Where two headings read alike, the source gives them in different places.

By AUC(0-t) is commonly meant the area under the concentration-time curve up to a stated or last time point. Lower therefore signals low exposure. One may read the IC50 as the concentration at which inhibition is half-maximal. One may read the CLint scaled as a measure of how fast metabolising enzymes remove a compound, apart from limits set by blood flow.

The nature of series [1]: Pharmacokinetic profiles in rats after intravenous and oral administration. As to conditions: for F: oral dose generally 5 or 10 mg/kg; for AUC(0-t) / half-life / Vd: rat, plasma; for Vd: read-out: Vss. Type of series: in vivo. As to the method: The compounds disclosed herein are assessed in pharmacokinetic studies in mice, rats, dogs or monkeys. The compounds are administered as a water solution, 2% HPMC+1% TWEEN® 80 in water solution, 5% DMSO+5% solutol in saline, 4% MC suspension or capsule. For the intravenous administration, the animals are generally given at 1 or 2 mg/kg dose. For the oral (p.o.) dosing, mice and rats are generally given 5 or 10 mg/kg dose, and dogs and monkeys are generally given 10 mg/kg dose. The blood samples (0.3 mL) are drawn at 0.25, 0.5, 1.0, 2.0, 3.0, 4.0, 6.0, 8.0, 12 and 24 h time points or 0.083, 0.25, 0.5, 1.0, 2.0, 4.0, 6.0, 8.0 and 24 h time points and centrifuged at 3,000 or 4000 rpm for 2 to 10 min. The plasma solutions are collected, stored at −20° C. or −70° C. until analyzed by LC/MS/MS as described above.

Series [2] addresses T1, mTOR (h) (Homo sapiens, UniProt P42345).
T1 construct: purchased Millipore UK Ltd (assay service)
The series is described as follows: mTOR (h) kinase assay (33P-ATP, filter). Type of series: biochemical. As to the method: mTOR (h) is incubated with 50 mM HEPES pH 7.5, 1 mM EDTA, 0.01% Tween 20, 2 mg/mL substrate, 3 mM Manganese Chloride and [γ-^33P-ATP] (specific activity approx. 500 cpm/pmol, concentration as required). The reaction is initiated by the addition of the MnATP mix. After incubation for 40 minutes at room temperature, the reaction is stopped by the addition of 3% phosphoric acid solution. 10 μL of the reaction is then spotted onto a P30 filtermat and washed three times for 5 minutes in 75 mM phosphoric acid and once in methanol prior to drying and scintillation counting.
(§1) The kinase assays described herein were performed at Millipore UK Ltd, Dundee Technology Park, Dundee DD2 1SW, UK.

Series [3] has as its target T2, PI3K p110α/p85α (h) (Homo sapiens, UniProt P42336).
T2 construct: purchased Millipore UK Ltd (assay service)
The series is described as follows: PI3K p110α/p85α (h) non-radioactive HTRF assay. It counts as biochemical. As to the method:
(§2) PI3K p110α/p85α (h) is incubated in assay buffer containing 10 μM phosphatidylinositol 4,5-bisphosphate and MgATP (concentration as required). The reaction is initiated by the addition of the ATP solution. After incubation for 30 minutes at room temperature, the reaction is stopped by the addition of stop solution containing EDTA and biotinylated phosphatidylinositol-3,4,5-trisphosphate. Finally, detection buffer is added, which contains europium-labelled anti-GST monoclonal antibody, GST-tagged GRP1 PH domain and streptavidin allophycocyanin. The plate is then read in timeresolved fluorescence mode and the homogenous time-resolved fluorescence (HTRF) signal is determined according to the formula HTRF=10000×(Em665 nm/Em620 nm).
as §1
Background: In TR-FRET formats the signal depends on donor and acceptor labels being close together.

The test system of series [4] is U87MG glioblastoma cells. The experiment in a line: Tumor xenograft model (U87MG), tumor growth inhibition. As to conditions: 14 days. It counts as in vivo, athymic nude mice. As to the method: The efficacy of compounds disclosed herein was evaluated in a standard murine model of tumorigenesis. Human tumor cells (U87MG glioblastoma cells from ATCC) were expended in culture, harvested, and injected subcutaneously onto the rear flank of 6-7 week old female athymic nude mice (BALB/cA nu/nu, Hunan SLAC Laboratory Animal, Co.) (n=6-10 for vehicle group and for each dosing group). When tumors reached a volume of 100-250 mm^3, animals were randomly divided into vehicle control (for example, 5% DMSO+70% Captisol® (30%), 7% HCl (pH1), 18% Captisol® (30%); or 7% DMSO, 7% HCl (pH1), 70% Captisol® (30%), 16% Captisol® (30%), or the like) and compound groups. Subsequent administration of compound by oral gavage begins anywhere from day 0 to day 15 post tumor cell challenge and generally continues with once a day for the duration of the experiment.
Progression of tumor growth is assessed by tumor volumes and recorded as a function of time. The long (L) and short (W) axes of the subcutaneous tumors were measured with calipers twice weekly, and the tumor volume (TV) calculated as (L×W^2)/2). TGI was calculated from the difference between the median tumor volumes of vehicle-treated and drug-treated mice, expressed as a percentage of the median tumor volume of the vehicle-treated control group, by the following relation:
Initial statistical analysis is done by repeated measures analysis of variance (RMANOVA), followed by Scheffe psot hoc testing for multiple comparisons. Vehicle alone (5% DMSO+70% Captisol® (30%), 7% HCl (pH1), 18% Captisol® (30%); or 7% DMSO, 7% HCl (pH1), 70% Captisol® (30%), 16% Captisol® (30%), or the like) is the negative control.

The nature of series [5]: Compound stability in human liver microsomes. Type of series: in vitro ADME. As to conditions: pH 7.4; for half-life at 5 μM: human liver microsomes 0.5 mg protein/mL, compound 5 μM, NADPH 1.0 mM, 37° C., read-out: Human T1/2; for CLint scaled at 5 μM: human liver microsomes, in vivo CLint extrapolated. As to the method: (§3) Human or rat liver microsomes incubations were conducted in duplicate in polypropylene tubes. The typical incubation mixtures consisted of human or rat liver microsomes (0.5 mg protein/mL), compounds of interest (5 μM) and NADPH (1.0 mM) in a total volume of 200 μL potassium phosphate buffer (PBS, 100 mM, pH=7.4). Compounds were dissolved in DMSO and diluted with PBS such that the final concentration of DMSO was 0.05%. The enzymatic reactions were commenced with the addition of […] after a 3-min preincubation and incubated in a water bath open to the air at 37° C. Reactions were terminated at various time points (0, 5, 10, 15, 30, 60 min) by adding equal volume of ice-cold acetonitrile. The samples were stored at −80° C. until LC/MS/MS assays.
(§4) The concentrations of compounds in the incubation mixtures of human or rat liver microsomes were determined by a LC/MS/MS method. The ranges of the linearity in the concentration range were determined for each tested compounds.
(§5) A parallel incubation was performed using denatured microsomes as the negative control, and reactions were terminated at various time points (0, 15, 60 min) after incubation at 37° C.
(§6) Dextromethorphan (70 μM) was selected as the positive control, and reactions were terminated at various time points (0, 5, 10, 15, 30, 60 min) after incubation at 37° C. Both positive and negative control samples were included in each assay to ensure the integrity of the microsomal incubation system.
(§7) The concentrations of compounds in human or rat liver microsome incubations were plotted as a percentage of the relevant zero time point control for each reaction. The in vivo CLint were extrapolated (ref: Naritomi Y, Terashita S, Kimura S, Suzuki A, Kagayama A, Sugiyama Y. Prediction of human hepatic clearance from in vivo animal experiments and in vitro metabolic studies with liver microsomes from animals and humans. Drug Metabolism and Disposition 2001, 29: 1316-1324).

The nature of series [6]: Compound stability in rat liver microsomes. Type of series: in vitro ADME. As to the method: as §3, §4, §5, §6, §7
In general terms: Microsomes from liver hold many membrane-bound enzymes, among them those of drug oxidation.

Series [7] has as its target T3, PI3K p110β/p85α (h) (Homo sapiens, UniProt P42338).
T3 construct: purchased Millipore UK Ltd (assay service)
The experiment in a line: PI3K p110β/p85α (h) non-radioactive HTRF assay. It counts as biochemical. As to the method:
as §2, with “(p110β/p85α)” for “p110α/p85α”, “phosphatidylinositol-4,5-bisphosphate” for “phosphatidylinositol 4,5-bisphosphate”, “MgATP mix.” for “ATP solution.”, “streptavidin-allophycocyanin.” for “streptavidin allophycocyanin.”
as §1

Series [8] has as its target T4, PI3K (p110δ/p85α) (h) (Homo sapiens, UniProt O00329).
T4 construct: purchased Millipore UK Ltd (assay service)
The series is described as follows: PI3K p110δ/p85α (h) non-radioactive HTRF assay. It counts as biochemical. As to the method:
as §2, with “(p110δ/p85α)” for “p110α/p85α”, “phosphatidylinositol-4,5-bisphosphate” for “phosphatidylinositol 4,5-bisphosphate”, “MgATP mix.” for “ATP solution.”, “streptavidin-allophycocyanin.” for “streptavidin allophycocyanin.”
as §1

T3 sequence (P42338 whole entry): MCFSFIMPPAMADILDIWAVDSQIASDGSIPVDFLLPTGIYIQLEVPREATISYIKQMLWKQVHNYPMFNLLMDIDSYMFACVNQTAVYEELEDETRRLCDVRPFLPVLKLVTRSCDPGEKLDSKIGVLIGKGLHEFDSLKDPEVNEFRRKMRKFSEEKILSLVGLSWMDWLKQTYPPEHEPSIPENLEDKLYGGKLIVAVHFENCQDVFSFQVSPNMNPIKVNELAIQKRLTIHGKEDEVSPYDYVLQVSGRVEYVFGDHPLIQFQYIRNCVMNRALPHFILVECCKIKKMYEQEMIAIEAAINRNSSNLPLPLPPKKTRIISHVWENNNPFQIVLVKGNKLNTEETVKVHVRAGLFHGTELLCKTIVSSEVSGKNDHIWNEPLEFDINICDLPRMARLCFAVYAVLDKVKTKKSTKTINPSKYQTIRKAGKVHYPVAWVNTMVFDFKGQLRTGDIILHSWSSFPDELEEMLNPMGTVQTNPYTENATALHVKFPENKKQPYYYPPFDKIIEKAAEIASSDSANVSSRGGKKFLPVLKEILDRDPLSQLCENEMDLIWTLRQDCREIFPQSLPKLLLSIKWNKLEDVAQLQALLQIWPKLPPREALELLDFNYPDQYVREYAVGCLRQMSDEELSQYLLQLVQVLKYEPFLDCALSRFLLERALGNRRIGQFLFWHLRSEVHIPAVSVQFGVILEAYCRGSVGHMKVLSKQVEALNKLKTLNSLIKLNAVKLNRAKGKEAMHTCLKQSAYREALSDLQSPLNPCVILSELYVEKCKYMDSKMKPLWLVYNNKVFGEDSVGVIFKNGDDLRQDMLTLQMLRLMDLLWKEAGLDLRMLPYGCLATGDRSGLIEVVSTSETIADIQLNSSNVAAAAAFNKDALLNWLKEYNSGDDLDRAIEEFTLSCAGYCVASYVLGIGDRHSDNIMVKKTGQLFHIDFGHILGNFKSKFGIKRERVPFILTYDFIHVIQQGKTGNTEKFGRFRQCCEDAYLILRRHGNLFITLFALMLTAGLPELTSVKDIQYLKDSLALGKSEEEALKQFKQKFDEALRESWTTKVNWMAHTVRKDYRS
T3 sequence (P27986 whole entry partner): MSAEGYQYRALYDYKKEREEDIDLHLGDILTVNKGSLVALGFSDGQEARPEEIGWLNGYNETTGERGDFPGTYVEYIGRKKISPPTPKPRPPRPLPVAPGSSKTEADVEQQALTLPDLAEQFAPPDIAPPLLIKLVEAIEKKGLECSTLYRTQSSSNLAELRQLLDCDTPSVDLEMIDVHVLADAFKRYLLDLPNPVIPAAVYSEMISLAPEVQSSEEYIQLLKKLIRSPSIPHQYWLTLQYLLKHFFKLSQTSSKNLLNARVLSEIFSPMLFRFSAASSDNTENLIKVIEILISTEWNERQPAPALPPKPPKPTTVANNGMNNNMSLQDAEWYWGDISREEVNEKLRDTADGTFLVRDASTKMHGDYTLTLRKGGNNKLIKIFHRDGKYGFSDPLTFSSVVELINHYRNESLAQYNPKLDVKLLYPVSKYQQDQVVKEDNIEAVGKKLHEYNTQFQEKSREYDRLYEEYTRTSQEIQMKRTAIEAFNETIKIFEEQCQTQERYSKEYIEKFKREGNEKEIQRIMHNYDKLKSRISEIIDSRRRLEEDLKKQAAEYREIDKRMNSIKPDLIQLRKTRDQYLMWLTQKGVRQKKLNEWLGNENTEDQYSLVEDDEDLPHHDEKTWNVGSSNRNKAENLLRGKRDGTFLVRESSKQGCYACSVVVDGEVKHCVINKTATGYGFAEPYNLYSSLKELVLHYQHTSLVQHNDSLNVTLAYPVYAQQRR
T4 sequence (O00329 whole entry): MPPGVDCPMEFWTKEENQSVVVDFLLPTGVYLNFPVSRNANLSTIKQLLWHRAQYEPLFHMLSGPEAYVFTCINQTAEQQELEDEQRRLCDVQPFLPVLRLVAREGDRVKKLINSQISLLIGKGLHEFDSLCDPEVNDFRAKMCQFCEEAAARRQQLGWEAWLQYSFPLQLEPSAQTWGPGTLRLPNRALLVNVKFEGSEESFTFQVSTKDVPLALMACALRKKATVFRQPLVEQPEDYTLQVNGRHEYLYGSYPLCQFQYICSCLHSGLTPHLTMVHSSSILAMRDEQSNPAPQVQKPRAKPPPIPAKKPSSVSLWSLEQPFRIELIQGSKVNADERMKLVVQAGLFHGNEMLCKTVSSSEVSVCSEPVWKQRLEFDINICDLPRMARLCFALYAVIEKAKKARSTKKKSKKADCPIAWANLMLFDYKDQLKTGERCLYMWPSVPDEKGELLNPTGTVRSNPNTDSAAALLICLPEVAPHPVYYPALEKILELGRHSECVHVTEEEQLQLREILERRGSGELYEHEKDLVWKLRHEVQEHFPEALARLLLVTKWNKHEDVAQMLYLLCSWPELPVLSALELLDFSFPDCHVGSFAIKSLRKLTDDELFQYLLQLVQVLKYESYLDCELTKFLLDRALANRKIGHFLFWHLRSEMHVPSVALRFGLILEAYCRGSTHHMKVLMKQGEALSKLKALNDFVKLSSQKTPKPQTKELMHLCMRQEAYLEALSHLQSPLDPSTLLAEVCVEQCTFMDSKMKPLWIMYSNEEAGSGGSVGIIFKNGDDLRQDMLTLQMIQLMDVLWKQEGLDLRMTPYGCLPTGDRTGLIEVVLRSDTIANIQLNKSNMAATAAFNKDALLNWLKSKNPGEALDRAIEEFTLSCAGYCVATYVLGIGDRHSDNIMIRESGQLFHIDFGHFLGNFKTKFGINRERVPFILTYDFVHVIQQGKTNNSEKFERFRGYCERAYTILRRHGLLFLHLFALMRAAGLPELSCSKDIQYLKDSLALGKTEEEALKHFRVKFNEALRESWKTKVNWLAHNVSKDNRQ
T4 sequence (P27986 whole entry partner): as the sequence (P27986 whole entry partner) above
T2 sequence (P42336 whole entry): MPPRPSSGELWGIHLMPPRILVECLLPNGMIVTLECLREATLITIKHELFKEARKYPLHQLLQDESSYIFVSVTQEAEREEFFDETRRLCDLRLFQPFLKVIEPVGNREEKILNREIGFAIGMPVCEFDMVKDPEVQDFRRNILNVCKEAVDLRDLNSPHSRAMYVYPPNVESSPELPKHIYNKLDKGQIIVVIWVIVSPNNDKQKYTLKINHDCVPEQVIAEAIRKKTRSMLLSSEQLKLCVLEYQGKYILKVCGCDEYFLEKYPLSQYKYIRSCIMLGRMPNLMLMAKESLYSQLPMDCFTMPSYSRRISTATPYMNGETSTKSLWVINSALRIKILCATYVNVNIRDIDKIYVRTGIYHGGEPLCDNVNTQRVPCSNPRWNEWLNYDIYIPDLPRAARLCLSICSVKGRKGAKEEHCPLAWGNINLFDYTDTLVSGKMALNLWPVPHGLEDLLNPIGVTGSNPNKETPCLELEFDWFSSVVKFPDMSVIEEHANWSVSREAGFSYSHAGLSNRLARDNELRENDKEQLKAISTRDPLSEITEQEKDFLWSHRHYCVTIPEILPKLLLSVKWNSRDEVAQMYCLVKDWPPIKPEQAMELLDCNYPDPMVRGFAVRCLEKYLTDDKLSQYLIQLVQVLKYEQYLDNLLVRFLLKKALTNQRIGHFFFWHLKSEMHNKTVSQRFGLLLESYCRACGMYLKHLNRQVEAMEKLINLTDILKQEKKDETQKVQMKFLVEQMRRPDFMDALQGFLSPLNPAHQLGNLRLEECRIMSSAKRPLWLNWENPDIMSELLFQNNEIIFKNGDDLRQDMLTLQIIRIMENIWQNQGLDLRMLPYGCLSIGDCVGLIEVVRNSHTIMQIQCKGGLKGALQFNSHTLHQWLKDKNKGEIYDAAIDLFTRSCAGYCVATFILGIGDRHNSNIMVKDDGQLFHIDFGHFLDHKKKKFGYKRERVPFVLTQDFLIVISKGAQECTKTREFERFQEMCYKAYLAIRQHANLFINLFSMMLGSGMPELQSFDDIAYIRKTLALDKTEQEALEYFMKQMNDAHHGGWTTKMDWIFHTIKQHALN
T2 sequence (P27986 whole entry partner): as the sequence (P27986 whole entry partner) above

In turn, `COc1ncc(-c2ccc3ncc(C#CCO)n3n2)cc1NS(=O)(=O)c1ccc(F)cc1` [Ex. 2, 4-fluoro-N-(5-(3-(3-hydroxyprop-1-yn-1-yl)imidazo[1,2-b]pyridazin-6-yl)-2-methoxypyridin-3-yl)benzenesulfonamide] returned a F in series [1] (iv dose 2 mg/kg) of 56.1%. For the same compound, in series [1] (iv dosing 2 mg/kg), the Cl/F was determined as 1.67 mL/min/kg, the AUC(0-t) came out at 20700 ng·h/mL, the half-life was 3.42 h and the Vd was determined as 0.22 L/kg. In series [2], this compound yielded an IC50 of 29 nM. In addition, in series [3], the IC50 came to 6 nM. Moreover, in series [4] (1 mg/kg oral gavage), the “TGI % U87MG” value is on record as 6%. In series [4] (3 mg/kg oral gavage), the “TGI % U87MG” value was 21%. In addition, the “TGI % U87MG” value in series [4] (10 mg/kg oral gavage) is 35%.
For `CC#Cc1cnc2ccc(-c3cnc(OC)c(NS(=O)(=O)c4ccc(F)cc4F)c3)cn12` [Ex. 18, 2,4-difluoro-N-(2-methoxy-5-(3-(prop-1-yn-1-yl)imidazo[1,2-a]pyridin-6-yl)pyridin-3-yl)benzenesulfonamide], in series [5], the half-life at 5 μM worked out at 3.54 h and the CLint scaled at 5 μM was 8.18 mL/min/kg. The half-life at 5 μM in series [6] (pH 7.4, rat liver microsomes 0.5 mg protein/mL, compound 5 μM, NADPH 1.0 mM, 37° C., read-out: Rat T1/2) was found to be 0.731 h. Besides, the CLint scaled at 5 μM in series [6] (pH 7.4, rat liver microsomes, in vivo CLint extrapolated) was 56.6 mL/min/kg. In series [1] (iv dose 1 mg/kg), the F is reported as 97.16%. In series [1] (iv dosing 1 mg/kg), the Cl/F turned out to be 1.67 mL/min/kg, the AUC(0-t) turned out to be 10300 ng·h/mL, the half-life is 2.33 h and the Vd turned out to be 0.35 L/kg. Moreover, the IC50 in series [7] turned out to be 28 nM. For the same compound, the IC50 in series [8] worked out at 2 nM.
On to `COc1ncc(-c2ccc3ncc(C#N)n3c2)cc1NS(=O)(=O)c1ccc(F)cc1F` [Ex. 19, N-(5-(3-cyanoimidazo[1,2-a]pyridin-6-yl)-2-methoxypyridin-3-yl)-2,4-difluorobenzenesulfonamide], for which, in series [5], the half-life at 5 μM was determined as 7.07 h and the CLint scaled at 5 μM is 4.1 mL/min/kg. Also, the “Rat T1/2” value in series [6] (rat liver microsomes 0.5 mg protein/mL, compound 5 μM, NADPH 1.0 mM, 37° C.) is given as “∞”. In series [1] (iv dose 2 mg/kg), this compound displayed an F of 54.66%. In addition, in series [1] (iv dosing 2 mg/kg), the Cl/F came to 3.83 mL/min/kg, the AUC(0-t) is 10100 ng·h/mL, the half-life is 2.58 h and the Vd was determined as 0.55 L/kg. Besides, the 50% inhibitory concentration (IC50) in series [7] came to 28 nM. For the same compound, the IC50 in series [8] stood at 4 nM.
